Where “and” joins values, the source holds several entries; their conditions need not be identical. Equal values may be shown once.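 Following 48 hours of exposure in 96-well plates, responses at five concentrations were used to interpolate endpoints linearly. Abbreviation: GI50, concentration required for 50% inhibition of growth. The concentration for full growth arrest is given as TGI.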
Key:
Assay in all cases: DTP human tumour cell line panel, 48 h
HL-60(TB) leukemia = test system: HL-60(TB) leukemia
OVCAR-3 ovarian = test system: OVCAR-3 ovarian
RPMI-8226 leukemia = test system: RPMI-8226 leukemia
COLO 205 colon = test system: COLO 205 colon
NCI-H460 lung = test system: NCI-H460 lung
SR leukemia = test system: SR leukemia
KM12 colon = test system: KM12 colon
HOP-92 NSCLC = test system: HOP-92 NSCLC
HOP-62 NSCLC = test system: HOP-62 NSCLC
HCT-116 colon = test system: HCT-116 colon

Compound	GI50 (HL-60(TB) leukemia)	TGI (HL-60(TB) leukemia)	GI50 (OVCAR-3 ovarian)	TGI (OVCAR-3 ovarian)	GI50 (RPMI-8226 leukemia)	TGI (RPMI-8226 leukemia)	GI50 (COLO 205 colon)	TGI (COLO 205 colon)	GI50 (NCI-H460 lung)	TGI (NCI-H460 lung)	GI50 (SR leukemia)	TGI (SR leukemia)	GI50 (KM12 colon) [µM]	TGI (KM12 colon) [µM]	GI50 (HOP-92 NSCLC)	TGI (HOP-92 NSCLC)	GI50 (HOP-62 NSCLC)	TGI (HOP-62 NSCLC)	GI50 (HCT-116 colon) [µM]	TGI (HCT-116 colon)
COc1cc(/C=C/C(=O)c2c(C)n([O-])c3ccc(Cl)cc3[n+]2=O)cc(OC)c1OC	> 100000 nM	> 100 µM	> 100 µM	> 100 µM	> 100000 nM	> 100 µM	> 100 µM	> 100 µM	56600 nM	> 100 µM	8400 nM	> 100 µM	> 100	> 100	71.8 nM	3.53 µM	60.2 µM	> 100 µM	76	> 100 µM
N#CC(C#N)=C1SCC(=O)CS1	–	> 100 µM	–	> 100 µM	–	> 100 µM	–	> 100 µM	–	> 100 µM	–	> 100 µM	–	> 100	–	> 100 µM	–	> 100 µM	–	> 100 µM
Cc1ccc(S(=O)(=O)Nc2nc3ccccc3nc2Nc2ccc3nsnc3c2)cc1	2960 nM and 2860 nM	14 µM and > 30 µM	3.23 µM and 3.65 µM	14.8 µM and > 100 µM	850 nM and 2640 nM	21.2 µM and > 100 µM	5.81 µM and 9.83 µM	23.6 µM and > 100 µM	3360 nM and 2920 nM	70.7 µM and > 100 µM	7870 nM and 4490 nM	95.4 µM and > 100 µM	4.3	> 100	1890 nM and 294 nM	8.23 µM and 3.73 µM	5.36 µM and 5.68 µM	35.6 µM and > 100 µM	3.52	15.4 µM and > 100 µM
OC(CNc1ccnc2cc(Cl)ccc12)CNC1CCCCC1 (centres undefined)	10900 nM	28.7 µM	15 µM	34.7 µM	10100 nM	36.4 µM	1.69 µM	3.31 µM	13800 nM	30.2 µM	1950 nM	5.13 µM	13	27.3	1420 nM	7.12 µM	12.3 µM	26.3 µM	4.66	16.7 µM
Oc1ccc(N=Nc2ccc(N=Nc3ccccc3)cc2)cc1	366 nM	16.1 µM	1.71 µM	4.77 µM	2150 nM	16 µM	8.01 µM	24.4 µM	1970 nM	6.16 µM	1790 nM	14 µM	2.98	16.6	6970 nM	28.1 µM	2.7 µM	9.05 µM	1.99	10.1 µM
N#Cc1nc2cc(F)c(F)cc2nc1-c1ccc(Cl)cc1	3430 nM	> 28.2 µM	2.24 µM	8.28 µM	6170 nM	> 100 µM	26.9 µM	> 100 µM	57500 nM	> 100 µM	1700 nM	4.35 µM	51.9	> 100	61.4 nM	15 µM	45 µM	> 100 µM	10.7	29.2 µM
C[CH2][Sn]([Cl])([Cl])[CH2]C	> 75900 nM	> 100 µM	98 µM	> 100 µM	17100 nM	48.3 µM	19.1 µM	34.8 µM	> 64300 nM	> 100 µM	25300 nM	> 100 µM	> 100	> 100	19700 nM	36.2 µM	> 100 µM	> 100 µM	> 63.4	> 100 µM
CC(=O)c1c[nH]cc1CO	–	> 10 µM	–	> 10 µM	–	> 10 µM	–	> 10 µM	–	> 10 µM	–	> 10 µM	–	> 10	–	> 10 µM	–	> 10 µM	–	> 10 µM
Oc1c(N=Nc2ccccc2)c2ccccc2c2ccc3ccccc3c12	–	> 100 µM	–	> 100 µM	–	> 100 µM	–	> 100 µM	–	> 100 µM	–	32.6 µM	–	> 100	–	> 100 µM	–	> 100 µM	–	> 100 µM
CN1CCn2c(c(Sc3ccc(C(=O)NO)cc3)c3ccccc32)C1=O	3160 nM	32 µM	1.87 µM	4.33 µM	1240 nM	> 24.5 µM	1.69 µM	3.87 µM	2190 nM	6.58 µM	2650 nM	> 100 µM	1.85	3.92	1670 nM	3.53 µM	1.88 µM	3.87 µM	1.59	3.55 µM
N#CC(NNC(=O)c1ccccc1O)c1ccccc1 (centres undefined)	–	52.5 µM	–	85.9 µM	–	> 100 µM	–	> 100 µM	–	> 100 µM	–	24.8 µM	–	> 100	–	> 100 µM	–	> 100 µM	–	> 100 µM
COCCNC(=O)c1ccc(-c2nc3ccc4[nH]ncc4c3c3c2CCCC3)cc1	2430 nM	7.33 µM	3.85 µM	37.3 µM	1740 nM	7.03 µM	2.83 µM	15 µM	1860 nM	27.1 µM	558 nM	6.2 µM	0.741	42.5	1590 nM	78.9 µM	0.969 µM	39.5 µM	1.2	> 100 µM
C=CC(=O)Nc1cccc(C)c1Nc1ncc2cc(-c3c(Cl)c(OC)cc(OC)c3Cl)ccc2n1	2130 nM	15 µM	2.78 µM	13.1 µM	1440 nM	7.54 µM	4.17 µM	36.7 µM	1640 nM	11.5 µM	2750 nM	> 100 µM	4.11	24.8	6990 nM	36.8 µM	8.86 µM	50 µM	6.36	24.9 µM
Cc1cc(C)c(NS(=O)c2cccc(Cl)c2)c(C)c1 (centres undefined)	–	> 100 µM	–	> 100 µM	–	> 100 µM	–	> 100 µM	–	> 100 µM	–	> 100 µM	–	> 100	–	> 100 µM	–	> 100 µM	–	> 100 µM
O=P1(O)c2ccccc2Nc2cc(C(F)(F)F)ccc21	–	> 100 µM	–	> 100 µM	–	> 100 µM	–	> 100 µM	–	> 100 µM	–	> 100 µM	–	> 100	–	> 100 µM	–	> 100 µM	–	> 100 µM
Clc1ccc2c(c1)-c1ccccc1C1=NCCN12	2430 nM	5.47 µM	2.3 µM	6.16 µM	1910 nM	4.36 µM	1.61 µM	3.54 µM	1490 nM	4.51 µM	1550 nM	4.13 µM	2.56	7.79	1190 nM	3.29 µM	1.98 µM	6.02 µM	0.719	6.86 µM
Cc1ccc(N2C(=O)/C(=C/c3ccc(N(CCC#N)CCC#N)cc3C)N=C2c2cc([N+](=O)[O-])ccc2Cl)cc1	–	> 100 µM	–	> 100 µM	–	> 100 µM	–	> 100 µM	–	> 100 µM	–	> 100 µM	–	> 100	–	> 100 µM	–	> 100 µM	–	> 100 µM
NCCCCN(Cc1nc2ccccc2[nH]1)[C@H]1CCCc2cccnc21	5340 nM	26.7 µM	15.3 µM	> 100 µM	12000 nM	47.6 µM	7.65 µM	26.2 µM	7470 nM	> 100 µM	4520 nM	24.8 µM	15.5	> 100	2120 nM	27.1 µM	11.4 µM	> 100 µM	6.81	51.3 µM
CS(=O)(=O)Nc1cc(-c2ccc3ncnc(Nc4ccc5c(cnn5Cc5ccccc5F)c4)c3c2)cnc1Cl	1020 nM	6.02 µM	0.795 µM	3.13 µM	1640 nM	4.18 µM	2.39 µM	9.09 µM	2100 nM	58 µM	3860 nM	> 100 µM	2.48	8.1	131 nM	–	0.457 µM	> 100 µM	2.08	> 33.7 µM
Cc1ccc(S(=O)(=O)c2c3[nH]c4ccccc4nc3n3c2nc2ccccc23)cc1	–	> 100 µM	–	> 100 µM	–	> 100 µM	–	> 100 µM	–	> 100 µM	–	> 100 µM	–	> 100	–	> 100 µM	–	> 100 µM	–	> 100 µM
